Literature values as cited in patent US20240358791A1, “PEPTIDES AND METHODS OF TREATING DYSTROPHY-RELATED DISORDERS USING THE SAME” (Prince Biotech, LLC, priority 2017, published 2024).

Conditions: IV infusion with radiation; xerostomia treatment (Kouvaria et al 2007)

For `NCCCNCCSP(=O)(O)O` [Amifostine], the side effects is given as “serious side effects including fatal skin reaction”.
